# Measured values from US7629341B2, “Human ADAM-10 inhibitors” (Symphony Evolution, Inc., priority 2003, dated 2009).
# Assays:
# ADAM-10 = biological target: T1, ADAM-10 (UniProt O14672); test: ADAM-10 enzyme assay, cleavage of a fluorogenic 10-residue peptide; type: biochemical, mouse or human (mADAM-10 or hADAM-10); conditions: in vitro;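 note: mouse or human ADAM-10 at 5 nM active enzyme, pH 8.0 HEPES buffer with CaCl2 and NP-40, compounds titrated 100 µM down to 0.5 nM, fluorescence read after 16 h at room temperature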
# T1 sequence (O14672 1-748): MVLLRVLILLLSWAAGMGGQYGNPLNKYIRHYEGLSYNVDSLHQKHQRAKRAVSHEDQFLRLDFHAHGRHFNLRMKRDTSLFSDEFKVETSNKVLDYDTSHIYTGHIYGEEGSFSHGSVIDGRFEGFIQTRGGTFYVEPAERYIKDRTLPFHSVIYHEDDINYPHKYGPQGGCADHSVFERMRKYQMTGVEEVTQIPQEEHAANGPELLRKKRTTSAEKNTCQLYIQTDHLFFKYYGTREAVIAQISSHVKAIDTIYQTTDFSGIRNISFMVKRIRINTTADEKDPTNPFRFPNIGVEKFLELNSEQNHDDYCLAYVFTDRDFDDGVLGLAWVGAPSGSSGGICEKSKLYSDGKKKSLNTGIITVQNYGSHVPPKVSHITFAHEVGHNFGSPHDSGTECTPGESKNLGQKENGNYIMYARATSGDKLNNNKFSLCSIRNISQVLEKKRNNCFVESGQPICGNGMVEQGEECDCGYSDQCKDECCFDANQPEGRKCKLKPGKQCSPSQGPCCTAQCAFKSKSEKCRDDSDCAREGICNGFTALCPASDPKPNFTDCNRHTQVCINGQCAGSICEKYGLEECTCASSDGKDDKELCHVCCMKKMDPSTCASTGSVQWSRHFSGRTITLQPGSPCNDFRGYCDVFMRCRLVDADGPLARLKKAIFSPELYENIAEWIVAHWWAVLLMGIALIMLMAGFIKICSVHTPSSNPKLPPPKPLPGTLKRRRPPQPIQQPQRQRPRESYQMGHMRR
# Experimental: mADAM-10 or hADAM-10 activity was measured as the ability to cleave a 10-residue peptide (DABCYL-Leu-Leu-Ala-Gln-Lys-*-LeuArg-Ser-Ser-Arg-EDANS). […] Enzyme was diluted to a final active concentration of 5 nM in Buffer A (50 mM HEPES 8.0, 100 mM NaCl, 1 mM CaCl2 and 0.01% NP-40). Serial dilutions for compounds were performed ranging from 100 μM to 0.5 nM using a Beckman Biomek 2000 in polypropylene plates (Greiner). […] This reaction was incubated for 16 hr at RT and fluorescence was read using identical conditions.
# [1] = biological target: T2, MMP-1 (Fibroblast collagenase) (Homo sapiens, UniProt P03956); test: In vitro metalloprotease inhibition, MMP-1; type: biochemical
# T2 sequence (P03956 100-469): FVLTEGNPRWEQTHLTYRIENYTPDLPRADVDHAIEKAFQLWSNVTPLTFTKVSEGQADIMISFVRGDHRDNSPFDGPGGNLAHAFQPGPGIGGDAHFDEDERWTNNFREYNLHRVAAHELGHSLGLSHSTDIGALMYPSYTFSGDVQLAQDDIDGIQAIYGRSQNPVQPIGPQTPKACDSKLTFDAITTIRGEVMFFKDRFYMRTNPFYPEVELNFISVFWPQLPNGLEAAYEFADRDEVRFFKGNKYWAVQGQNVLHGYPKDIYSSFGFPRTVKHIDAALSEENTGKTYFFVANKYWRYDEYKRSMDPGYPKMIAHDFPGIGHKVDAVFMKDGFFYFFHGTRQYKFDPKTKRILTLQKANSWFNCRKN
# Source text: (§1) Blank cells indicate lack of data only.
# [2] = biological target: T3, MMP-2 (72 kDa gelatinase, gelatinase A) (Homo sapiens, UniProt P08253); test: In vitro metalloprotease inhibition, MMP-2; type: biochemical
# T3 sequence (P08253 110-660): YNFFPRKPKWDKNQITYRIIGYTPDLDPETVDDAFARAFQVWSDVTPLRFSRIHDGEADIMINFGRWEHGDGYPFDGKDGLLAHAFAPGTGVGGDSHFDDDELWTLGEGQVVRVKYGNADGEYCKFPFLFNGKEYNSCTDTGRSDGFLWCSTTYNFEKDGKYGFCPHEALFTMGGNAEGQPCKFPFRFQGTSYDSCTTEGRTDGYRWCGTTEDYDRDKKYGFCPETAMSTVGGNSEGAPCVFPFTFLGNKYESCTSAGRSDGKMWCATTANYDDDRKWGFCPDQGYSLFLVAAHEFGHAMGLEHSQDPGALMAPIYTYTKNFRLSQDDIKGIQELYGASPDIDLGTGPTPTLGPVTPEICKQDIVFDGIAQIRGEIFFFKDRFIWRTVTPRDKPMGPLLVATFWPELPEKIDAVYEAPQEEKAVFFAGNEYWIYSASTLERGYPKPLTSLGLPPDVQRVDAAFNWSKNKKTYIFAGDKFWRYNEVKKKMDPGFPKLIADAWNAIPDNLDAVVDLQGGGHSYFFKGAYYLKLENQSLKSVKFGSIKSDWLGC
# MMP-3 (Stromelysin-1) = MMP-3 (Stromelysin-1) (Homo sapiens, UniProt P08254); test: In vitro metalloprotease inhibition, MMP-3; type: biochemical
# Chain of MMP-3 (Stromelysin-1) (P08254 100-477, species assumed): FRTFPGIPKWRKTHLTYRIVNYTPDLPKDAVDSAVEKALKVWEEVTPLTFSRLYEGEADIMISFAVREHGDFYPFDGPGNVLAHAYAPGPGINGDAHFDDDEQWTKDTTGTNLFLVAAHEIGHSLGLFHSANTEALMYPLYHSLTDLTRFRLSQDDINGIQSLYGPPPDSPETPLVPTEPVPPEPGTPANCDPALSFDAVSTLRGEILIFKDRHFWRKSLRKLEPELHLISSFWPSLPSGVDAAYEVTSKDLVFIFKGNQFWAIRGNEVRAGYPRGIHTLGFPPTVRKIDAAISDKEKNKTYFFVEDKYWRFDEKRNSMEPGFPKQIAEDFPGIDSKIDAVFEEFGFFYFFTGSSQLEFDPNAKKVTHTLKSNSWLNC
# Source text: as §1
# MMP-13 (collagenase-3) = MMP-13 (collagenase-3) (Homo sapiens, UniProt P45452); test: In vitro metalloprotease inhibition, MMP-13; type: biochemical
SMILES,IC50 (ADAM-10),IC50 [1],IC50 [2],IC50 (MMP-3 (Stromelysin-1)),IC50 (MMP-13 (collagenase-3))
COCCOC(=O)N1CCN(S(=O)(=O)c2ccc(Oc3ccc(F)cc3)cc2)[C@@H](C(=O)NO)C1 [Entry 1],< 50 nM,< 50 nM,< 50 nM,< 50 nM,< 50 nM
O=C(NO)[C@H]1CN(C(=O)N2CCOCC2)CCN1S(=O)(=O)c1ccc(Oc2ccc(F)cc2)cc1 [Entry 2],< 50 nM,< 50 nM,< 50 nM,< 50 nM,< 50 nM
COCCOC(=O)N1CCN(S(=O)(=O)c2ccc(Oc3ccc(F)cc3)c(F)c2)[C@@H](C(=O)NO)C1 [Entry 3],< 50 nM,50 to 1000 nM,< 50 nM,1000 to 20000 nM,< 50 nM
COCCOC(=O)N1CCN(S(=O)(=O)c2ccc(Oc3ccc(Cl)cc3)c(F)c2)[C@@H](C(=O)NO)C1 [Entry 4],< 50 nM,50 to 1000 nM,< 50 nM,< 50 nM,< 50 nM
COCCOC(=O)N1CCN(S(=O)(=O)c2ccc(Oc3ccc(C#N)cc3)c(F)c2)[C@@H](C(=O)NO)C1 [Entry 5],< 50 nM,50 to 1000 nM,< 50 nM,50 to 1000 nM,< 50 nM
O=C(NO)[C@H]1CN(C(=O)N2CCOCC2)CCN1S(=O)(=O)c1ccc(Oc2ccc(Cl)cc2)c(F)c1 [Entry 6],< 50 nM,50 to 1000 nM,< 50 nM,< 50 nM,< 50 nM
N#Cc1ccc(Oc2ccc(S(=O)(=O)N3CCN(C(=O)N4CCOCC4)C[C@@H]3C(=O)NO)cc2F)cc1 [Entry 7],< 50 nM,50 to 1000 nM,< 50 nM,< 50 nM,< 50 nM
O=C(NO)[C@H]1CN(C(=O)N2CCOCC2)CCN1S(=O)(=O)c1ccc(Oc2ccc(F)cc2)c(F)c1 [Entry 8],< 50 nM,50 to 1000 nM,< 50 nM,< 50 nM,< 50 nM
CC(C)(C)OC(=O)N1CCN(S(=O)(=O)c2cc(F)c(Oc3ccc(F)cc3)c(F)c2)[C@@H](C(=O)NO)C1 [Entry 9],< 50 nM,1000 to 20000 nM,< 50 nM,1000 to 20000 nM,1000 to 20000 nM
COCCOC(=O)N1CCN(S(=O)(=O)c2cc(F)c(Oc3ccc(F)cc3)c(F)c2)[C@@H](C(=O)NO)C1 [Entry 10],< 50 nM,1000 to 20000 nM,< 50 nM,1000 to 20000 nM,< 50 nM
O=C(NO)[C@H]1CNCCN1S(=O)(=O)c1cc(F)c(Oc2ccc(F)cc2)c(F)c1 [Entry 11],50 to 1000 nM,> 20000 nM,50 to 1000 nM,1000 to 20000 nM,> 20000 nM
O=C(NO)[C@H]1CN(C(=O)N2CCOCC2)CCN1S(=O)(=O)c1cc(F)c(Oc2ccc(F)cc2)c(F)c1 [Entry 12],< 50 nM,1000 to 20000 nM,< 50 nM,50 to 1000 nM,< 50 nM
CCOC(=O)N1CCN(S(=O)(=O)c2cc(F)c(Oc3ccc(F)cc3)c(F)c2)[C@@H](C(=O)NO)C1 [Entry 13],< 50 nM,1000 to 20000 nM,< 50 nM,50 to 1000 nM,< 50 nM
CN1CCN(S(=O)(=O)c2cc(F)c(Oc3ccc(F)cc3)c(F)c2)[C@@H](C(=O)NO)C1 [Entry 14],50 to 1000 nM,> 20000 nM,< 50 nM,> 20000 nM,< 50 nM
CN1CCN(C(=O)N2CCN(S(=O)(=O)c3cc(F)c(Oc4ccc(Cl)cc4)c(F)c3)[C@@H](C(=O)NO)C2)CC1 [Entry 16],< 50 nM,> 20000 nM,< 50 nM,1000 to 20000 nM,< 50 nM
O=C(NO)[C@H]1CN(C(=O)NCCN2CCCC2)CCN1S(=O)(=O)c1cc(F)c(Oc2ccc(Cl)cc2)c(F)c1 [Entry 17],< 50 nM,1000 to 20000 nM,< 50 nM,50 to 1000 nM,< 50 nM
O=C(NO)[C@H]1CN(C(=O)OCCN2CCCC2)CCN1S(=O)(=O)c1cc(F)c(Oc2ccc(Cl)cc2)c(F)c1 [Entry 18],< 50 nM,> 20000 nM,< 50 nM,50 to 1000 nM,< 50 nM
CNC(=O)CN1CCN(S(=O)(=O)c2cc(F)c(Oc3ccc(Cl)cc3)c(F)c2)[C@@H](C(=O)NO)C1 [Entry 19],< 50 nM,> 20000 nM,< 50 nM,50 to 1000 nM,< 50 nM
CN(C)C(=O)CN1CCN(S(=O)(=O)c2cc(F)c(Oc3ccc(Cl)cc3)c(F)c2)[C@@H](C(=O)NO)C1 [Entry 20],< 50 nM,> 20000 nM,< 50 nM,1000 to 20000 nM,< 50 nM
O=C(NO)[C@H]1CN(CC(=O)N2CCCC2)CCN1S(=O)(=O)c1cc(F)c(Oc2ccc(Cl)cc2)c(F)c1 [Entry 21],< 50 nM,> 20000 nM,< 50 nM,1000 to 20000 nM,50 to 1000 nM
CN1CCC(OC(=O)N2CCN(S(=O)(=O)c3cc(F)c(Oc4ccc(Cl)cc4)c(F)c3)[C@@H](C(=O)NO)C2)CC1 [Entry 22],< 50 nM,1000 to 20000 nM,< 50 nM,50 to 1000 nM,< 50 nM
CCOC(=O)N1CCN(CC(=O)N2CCN(S(=O)(=O)c3cc(F)c(Oc4ccc(Cl)cc4)c(F)c3)[C@@H](C(=O)NO)C2)CC1 [Entry 23],< 50 nM,> 20000 nM,< 50 nM,1000 to 20000 nM,< 50 nM
CN1CCN(CC(=O)N2CCN(S(=O)(=O)c3cc(F)c(Oc4ccc(Cl)cc4)c(F)c3)[C@@H](C(=O)NO)C2)CC1 [Entry 24],< 50 nM,> 20000 nM,< 50 nM,1000 to 20000 nM,< 50 nM
O=C(NO)[C@H]1CN(C(=O)CN2CCOCC2)CCN1S(=O)(=O)c1cc(F)c(Oc2ccc(Cl)cc2)c(F)c1 [Entry 25],< 50 nM,> 20000 nM,< 50 nM,50 to 1000 nM,< 50 nM
O=C(NO)[C@H]1CN(C(=O)CN2CCCCC2)CCN1S(=O)(=O)c1cc(F)c(Oc2ccc(Cl)cc2)c(F)c1 [Entry 26],< 50 nM,> 20000 nM,< 50 nM,1000 to 20000 nM,< 50 nM
O=C(NO)[C@H]1CN(C(=O)OCCN2CCCCC2)CCN1S(=O)(=O)c1cc(F)c(Oc2ccc(Cl)cc2)c(F)c1 [Entry 27],< 50 nM,1000 to 20000 nM,< 50 nM,50 to 1000 nM,< 50 nM
CS(=O)(=O)N1CCN(S(=O)(=O)c2cc(F)c(Oc3ccc(Cl)cc3)c(F)c2)[C@@H](C(=O)NO)C1 [Entry 28],< 50 nM,50 to 1000 nM,< 50 nM,50 to 1000 nM,< 50 nM
COCCN1CCN(S(=O)(=O)c2cc(F)c(Oc3ccc(Cl)cc3)c(F)c2)[C@@H](C(=O)NO)C1 [Entry 29],< 50 nM,1000 to 20000 nM,< 50 nM,50 to 1000 nM,< 50 nM
O=C(NO)[C@H]1CN(C(=O)OCc2ccccc2)CCN1S(=O)(=O)c1cc(F)c(Oc2ccc(Cl)cc2)c(F)c1 [Entry 32],< 50 nM,1000 to 20000 nM,< 50 nM,50 to 1000 nM,< 50 nM
